We go through two sequences from patent US20220204560A1, “NOVEL OLIGOPEPTIDE, AND PHARMACEUTICAL COMPOSITION FOR PREVENTING OR TREATING CANCER, COMPRISING THE SAME AS AN ACTIVE INGREDIENT” (L-BASE CO., LTD., priority 2019, published 2022).

The subject of test [1] is breast cancer cell line HCC70. Put plainly: CellTiter-Glo Luminescent (CTG) assay, cell activity suppression, breast cancer cell line HCC70. Format: cell-based. Conditions: HCC70, 100 μM or 500 μM, 72 hours, compared to control group (FIG. 5).
Test [2] relates to breast cancer cell line MDA-MB-231. Put plainly: Clonogenic assay, colony formation suppression, breast cancer cell line MDA-MB-231. The note with it: MDA-MB-231, 100 μM or 500 μM, 14 days, compared to control group (FIG. 4). It is filed as cell-based.

In the case of “AQTITGKT (Oligopeptide #1 AQTITGKT) [oligopeptide of General Formula A-Q-T-X-T-G-K-T, X is isoleucine]”, the “suppression of the activity of cancer cells (amount of ATP, CTG assay)” value in test [1] was “significant effects on suppression of the colony formation and the activity of cancer cells”. For the same sequence, in test [2], the “suppression of colony formation (clonogenic assay)” value is recorded as “significant effects on suppression of the colony formation”.
In the case of AQTLTGKT, the “suppression of the activity of cancer cells (amount of ATP, CTG assay)” value in test [1] is “significant effects on suppression of the colony formation and the activity of cancer cells”. For the same sequence, the “suppression of colony formation (clonogenic assay)” value in test [2] is on record as “significant effects on suppression of the colony formation”.
